Laboratory results reported in PMC11649784, “Re-design and evaluation of diclofenac-based carborane-substituted prodrugs and their anti-cancer potential” (Scientific Reports, 2024).

Columns and labels:
[1] = Stability in cell culture medium by HPLC; type: physicochemical
Procedure: In a preliminary test, the stability of all compounds dissolved in the cell medium (c = 100 μM, T = [drawing 47] ) for 72 h was validated by HPLC (see Supporting Information). Cell lines were incubated with the respective compounds in a concentration range of 1.56–100 μM for 72 h, and cell viability was measured using 3-(4,5-dimethylthiazol-2-yl)-2,5-diphenyltetrazolium bromide (MTT) and crystal violet (CV) assays. […] As MTT tests gave inconsistent results, possibly due to interference of the compound with mitochondrial respiration, for the further evaluation only the CV results are considered[97],[98].
Selg et al. Supp. Information
2 Stability Tests for Compound 3
In a 1 mL Eppendorf vial, 10 μL (0.05 μmol) of a freshly prepared 5 mM stock solution of compound 3 in DMSO was mixed with 490 μL of DMEM (Dulbecco's Modified Eagle Medium) containing 10% of fetal bovine serum and stored in an incubation oven at 40 °C for a total 72 hours. After 0, 24 and 72 hours, a 50 μL sample was collected from the mixture and diluted with 250 μL acetonitrile in a 500 μL Eppendorf vial to precipitate the proteins. The mixture was vortexed for 30 s before it was centrifuged for 20 min at 15,000 min-1 and 4 °C. […]
Figure S 2. […] Samples measured at 0, 24 and 72 hours (top to bottom) including the mass spectrum (right) and integration data (bottom). […]

ovine COX-1 = biological target: T1, ovine COX-1 (Ovis aries, UniProt P05979); assay: COX Fluorescent Inhibitor Screening Assay, COX-1; type: biochemical; details: absolute IC50, 0.1 to 100 μM in duplicate, 95% CI in brackets
T1 construct: purchased Cayman Chemical Company, Ann Arbor, MI, USA
T1 sequence (P05979 25-600): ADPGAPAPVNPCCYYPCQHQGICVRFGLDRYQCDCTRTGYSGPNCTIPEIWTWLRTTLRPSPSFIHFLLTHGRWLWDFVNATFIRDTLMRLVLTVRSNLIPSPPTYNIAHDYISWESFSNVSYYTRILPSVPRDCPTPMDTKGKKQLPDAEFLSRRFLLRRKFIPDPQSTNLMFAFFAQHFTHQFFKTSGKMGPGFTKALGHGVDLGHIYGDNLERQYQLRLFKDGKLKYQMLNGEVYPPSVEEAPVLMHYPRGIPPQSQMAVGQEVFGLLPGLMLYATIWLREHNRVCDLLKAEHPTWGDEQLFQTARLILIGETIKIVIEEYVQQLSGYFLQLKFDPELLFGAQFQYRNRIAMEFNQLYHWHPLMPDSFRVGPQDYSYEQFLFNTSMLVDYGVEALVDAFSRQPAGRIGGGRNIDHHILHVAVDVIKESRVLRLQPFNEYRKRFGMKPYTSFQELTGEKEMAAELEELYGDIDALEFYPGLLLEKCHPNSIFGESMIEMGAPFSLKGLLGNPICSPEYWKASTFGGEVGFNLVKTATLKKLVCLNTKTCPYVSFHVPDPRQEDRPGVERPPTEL
Procedure: (§1) The COX inhibition activity against ovine COX-1 and human recombinant COX-2 was determined using the COX Fluorescent Inhibitor Screening Assay Kit (Cayman Chemical Company, Ann Arbor, MI, USA) according to the manufacturer’s instructions as reported.

human recombinant COX-2 = biological target: T2, human recombinant COX-2 (Homo sapiens, UniProt P35354); assay: COX Fluorescent Inhibitor Screening Assay, COX-2; type: biochemical
T2 construct: purchased Cayman Chemical Company, Ann Arbor, MI, USA
T2 sequence (P35354 18-604): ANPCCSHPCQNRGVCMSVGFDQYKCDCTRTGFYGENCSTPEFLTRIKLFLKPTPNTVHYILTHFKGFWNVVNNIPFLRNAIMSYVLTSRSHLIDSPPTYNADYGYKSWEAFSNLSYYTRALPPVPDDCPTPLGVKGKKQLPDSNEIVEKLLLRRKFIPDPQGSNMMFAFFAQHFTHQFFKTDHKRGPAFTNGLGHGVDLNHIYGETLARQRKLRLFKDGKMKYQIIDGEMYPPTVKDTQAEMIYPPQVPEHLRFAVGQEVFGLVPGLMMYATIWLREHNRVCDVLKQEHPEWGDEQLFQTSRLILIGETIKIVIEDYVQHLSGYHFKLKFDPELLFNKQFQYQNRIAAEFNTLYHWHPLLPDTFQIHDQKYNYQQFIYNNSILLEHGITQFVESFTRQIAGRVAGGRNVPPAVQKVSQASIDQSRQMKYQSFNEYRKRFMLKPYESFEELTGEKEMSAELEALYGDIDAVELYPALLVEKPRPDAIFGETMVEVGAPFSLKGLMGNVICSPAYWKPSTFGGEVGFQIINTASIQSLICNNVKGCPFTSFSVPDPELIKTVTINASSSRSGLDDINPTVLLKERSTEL
Procedure: as §1

1-[2-(7,8-dicarba-nido-undecaborate)]- [drawing 126] H-indolium-2-amine [compound 3]
stability in cell medium by HPLC ([1]; 100 μM, 72 h, compound 3: DMEM with 10% fetal bovine serum, 40 °C, 0, 24 and 72 hours): no signs of decomposition
purity (relative area of integrals) after 72 hours in culture medium ([1]; DMEM with 10% fetal bovine serum, 40 °C, 72 hours): above 95%
IC50 (ovine COX-1): 15.3 µM
%Inh. @ 100 μM (n = 2) COX-2 (human recombinant COX-2; 100 μM): 105%
IC50 (human recombinant COX-2; absolute IC50, 0.1 to 100 μM in duplicate, 95% CI in brackets): 4.58 µM
COX inhibition, in words (human recombinant COX-2; in vitro COX assay, COX-1 and COX-2): moderately active COX-inhibitors
SI1/2 = IC50(COX-1)/IC50(COX-2) (human recombinant COX-2; selectivity index): 3.3
